The test system of one series is murine fibroblasts. As to conditions: for % Cell Survival: murine fibroblasts treated with 50 micromolar erastin, plate dilution assay; for Level of protection against LPO induced cell death relative to 13,13-D2-arachidonic acid: murine fibroblasts, 50 micromolar erastin.
For series [1] the following is noted: INAD children, 3.9 grams D2-LA ethyl ester daily for 1 month then 2.9 grams. Here is the method:
In this example, children suffering from INAD were treated with a daily dose of 3.9 grams of D2-LA ethyl ester followed by 2.9 grams of D2-LA ethyl ester. Given the age and weight of these children, such is assumed to be substantially equivalent to a loading dose of from about 7 and about 12 grams per day for an adult patient for an adult patient and a maintenance dose which is less than the loading dose again for an adult patient.
This example also determines the concentration of D2-AA in RBCs. Specifically, a cohort of 14 children was provided with a daily dose of 3.9 grams of D2-LA ethyl ester for 1 month followed by 2.9 grams of D2-LA ethyl ester for the remaining six-month period. Blood samples were taken at 3 months for all but 1 child and at 6 months for all children. The concentration of D2-AA in RBCs was measured.

The conditions of series [2]: 6 months; 15 INAD infants treated.
The conditions of series [3]: ALS patients on D2-LA; based on total AA and D2-AA; 'when calculated'. Here is the method: (§1) Patients suffering from ALS were treated with D2-LA over a period of time. […] Some patients were provided 2 grams of 11,11-D-2 LA per day as opposed to the loading dose of 9 grams per day.
(§2) Functional scores for each of the patients (ALSFRS-R results) at the end of therapy were compared to the natural history scores at the start of therapy.

A short description of series [4]: Determination of D2-AA and D2-LA concentrations in CSF and RBCs in a single patient (Example 1). The source says:
This example determines the relative concentration of D2-AA in the CSF and in RBCs in order to determine a correlation between these two concentrations. Specifically, a patient was continuously provided with a daily dose of 9 grams of D2-LA ethyl ester (which is 8.64 grams of active discounting for impurities and removal of the ethyl ester) over about a six-month period. Periodic samples of blood and CSF were taken and the concentration of both D2-LA and D-2AA in both the RBCs and the CSF were measured. In all cases, the D2-AA was obtained by deacylation of the ethyl ester of linoleic acid in the gastrointestinal tract followed by conversion of D2-LA in vivo to D2-AA.

Another series has as its system patients with ALS. Description: ALSFRS-R rate of functional decline in ALS patients on primer/maintenance dosing regimen (Example 3). It is filed as in vivo, human. The settings on record: for Annualized average reduction in the rate of disease progression: 9 grams then 5 grams daily, vs natural history. Here is the method:
As set forth in the examples below, the rate of functional decline is predicated on measuring an individual's, or a cohort's, average for the natural history of disease progression. Next, the individual or cohort average for the functional decline is determined at a period of time such as at 3, 6 or 12 months after initiation of therapy. The rate of decline based on the average of the natural history of the cohort is set as the denominator. The numerator is set as the delta between the rate of the natural history of disease progression and the rate of functional decline after a set period of treatment per this invention. The resulting fraction is the multiplied by 100 to give a percent change. The following exemplifies this analysis.
This example illustrates the reduction in the rate of disease progression in patients with ALS treated by the dosing methods described herein, this example evidences that the amount of oxidized PUFA products has been reduced to a level that allows the otherwise impaired regulatory enzymes are able to neutralize substantially all of these oxidized products now generated. Specifically, a cohort of 3 patients was placed on a dosing regimen consisting of a first dosing component (primer dose) of about 9 grams of D2-LA ethyl ester daily for a period of at least 30 days and then all three patients were transitioned to a second dosing component (maintenance dose) of 5 grams of D2-LA ethyl ester.
The functionality of each of the patients was evaluated periodically using the ALSFRS-R protocol. The patients continued on the dosing regimen for a period of 6 months (patient A) or 1 year (patient B) or for 9 months (patient C). Patient C died at the end of 9 months and their death was attributed to factors other than ALS cardiomyopathy. Before initiation of therapy, the natural history of each patient in the cohort was determined and an average annual rate of functional decline was measured at 21.
The annualized progression of the disease, as measured by an average annual rate of functional decline for all three patients starting at the time that dosing began and terminating at the end of the dosing regimen and then annualized as described above, was measured as 2.1. Using the formula described above, one obtains the following: […]

The test system of series [5] is infants suffering from INAD. Nature of the series: Open label treatment study of INAD patients (Example 6). It is filed as in vivo, human. Here is the method: Novel and conventional developmental neurologic assessment scales appropriate to the disease and which measure vital function in different parts of the brain were applied at base line and at 6 monthly intervals and the health and well-being of the infants were assessed continuously for 1-2 years, including any aspiration pneumonia, hospitalizations and deaths.

Series [6] has as its system patients suffering from ALS. Description: ALSFRS-R rate of functional decline in ALS patients treated with D2-LA (Comparative Example A). It is filed as in vivo, human. Here is the method:
as §1, §2

Setting [7] is: 3 months, single patient, daily 9 grams D2-LA ethyl ester.
The mark [8] stands for this setting: 6 months, single patient, daily 9 grams D2-LA ethyl ester.

SMILES strings stand for the structures. Like-named read-outs stand apart in the source and are kept apart here.

Protocol for murine fibroblasts: In this example, two different pools of cells were each seeded in 48-well plates and treated with 50 micromolar of erastin.
Afterwards, cell viability was measured by plate dilution assay to distinguish between cells that are alive and those that are dead on a Petri dish.

In the case of `[2H]C([2H])(/C=C\CCCCC)/C=C\C([2H])([2H])/C=C\C([2H])([2H])/C=C\CCCC(=O)O`, in the series on murine fibroblasts, the “% Cell Survival” value turned out to be 70.2% and the “Level of protection against LPO induced cell death relative to 13,13-D2-arachidonic acid” value is given as “approximately twice the level of protection”. In addition, in the series on murine fibroblasts (listed as D6-AA), the “Level of protection against LPO induced cell death relative to 13,13-D2-arachidonic acid” value is on record as “about 2”.

With `[2H]C([2H])(/C=C\C/C=C\C/C=C\CCCC(=O)O)/C=C\CCCCC` [D2-AA, 13,13-D2-Arachidonic Acid], the “% Cell Survival” value in the series on murine fibroblasts was determined as 33.2%. For the same compound, the “Average concentration of D2-AA in the RBCs” value in series [1] (3 months) is 12%; in series [1] (6 months), 16.7%. For the same compound, in series [2], the “Average plasma level of D2-AA” value came out at 17.4%. Moreover, in series [3], the “Amount of D2-AA in the patients' RBCs, average” value is “about 3%”. Moreover, the “Amount of D2-AA in RBCs at 1 month, estimated by linear extrapolation” value in series [4] (1 month, extrapolated from 3 and 6 month values (FIG. 1)) is listed as “about 3%”. The “Concentration of D2-AA in CSF” value in series [4] (1 month, single patient, daily 9 grams D2-LA ethyl ester, based on arachidonic acid + deuterated arachidonic acid) is given as 8%. For the same compound, the “Concentration of D2-AA in RBCs” value in series [4] (setting [7]) was 11.8%; in series [4] (setting [8]) it was 16.7%.

As to `[2H]C([2H])(/C=C\CCCCC)/C=C\CCCCCCCC(=O)OCC` [D2-LA ethyl ester, 11,11-D2-linoleic acid ethyl ester], the “Functional Rate Decline During Therapy” value with patients with ALS (Patient A, 6 months on regimen, NH rate of decline −16) was −3; with patients with ALS (Patient B, 1 year on regimen, NH rate of decline −31), −2; in the series with patients with ALS (Patient C, 9 months on regimen, NH rate of decline −16), −1.3. Moreover, in the series with patients with ALS (cohort of 3 ALS patients), the “Annualized average reduction in the rate of disease progression” value was found to be 90%. Besides, the “Average annual rate of functional decline (ALSFRS-R) during dosing, annualized” value with patients with ALS (cohort of 3 ALS patients, about 9 grams daily at least 30 days then 5 grams, natural history 21) worked out at 2.1.

In the case of `[2H]C([2H])(/C=C\CCCCC)/C=C\CCCCCCCC(=O)O` [D2-LA, 11,11-D2-Linoleic Acid], in series [5] (19 INAD infants treated), the “Deaths due to other causes” value was 2 and the Non-fatal pneumonia is 2. The Serious events in series [5] (19 INAD infants treated at least 1 year and up to 2.5 years) is 4. The “No. of Aspirations resulting in pneumonias” value in series [5] (19 INAD infants treated at least 1 year and up to 2.5 years, natural history 10/37) is given as 2/19. In series [5] (19 INAD infants treated, mortality from pneumonias, natural history 21.6%), this compound showed a Percent mortality of 0%. Further, the “Fatal Pneumonias” value in series [5] (19 INAD infants treated, natural history 8) is listed as 0. Also, the “Percent Pneumonias” value in series [5] (19 INAD infants treated, natural history 27.0%) turned out to be 10.5%. Moreover, the “Deaths due to aspiration pneumonia” value in series [5] (19 subjects over 2.5 years treatment) is “no deaths due to aspiration pneumonia”. Besides, in series [6] (different dosing amounts and periods of D2-LA (some 2 grams per day), pre-treatment −14.2+/−4.4), the “Annualized rate of decline (ALSFRS-R) during treatment” value is listed as −7.6+/−1.4 per year. The “Reduction in rate of decline vs pre-treatment” value in series [6] (p=0.07, paired t-test for within-subject change in slope) stood at 46%. In the series on patients with ALS (cohort of 3 ALS patients), the “Annualized average reduction in the rate of disease progression” value is around 90%. Moreover, the “Concentration of D2-LA in CSF” value in series [4] (1 month, single patient, daily dose of 9 grams of D2-LA ethyl ester) worked out at 19.8%. Further, the “Concentration of D2-LA in RBCs” value in series [4] (setting [7]) was found to be 34.7%. For the same compound, the “Concentration of D2-LA in RBCs” value in series [4] (setting [8]) is listed as 34.5%.

The values above are taken from patent publication US20230165824A1, “METHODS, SYSTEMS AND COMPOSITIONS FOR INHIBITION OF CELLULAR DYSFUNCTION AND CELL DEATH WITH DEUTERATED PUFAs” (BioJiva LLC, priority 2021, published 2023).
